Test results published in patent US12551461B2, “Compositions of triglycerides and uses thereof” (Ultragenyx Pharmaceutical Inc., priority 2013, dated 2026).
“Also recorded” adds a separate entry of the source.

Columns and labels:
[1] = Storage stability of triheptanoin oil; format: physicochemical; conditions: stored at room temperature and protected from light
Text: In some embodiments, the triheptanoin oil as described herein is a colorless oil of low viscosity and is odorless and tasteless. Triheptanoin oil as described herein is typically stored at room temperature and protected from light, and its stability can exceed 24 months under such conditions.

[2] = Single dose study, PK profile of triheptanoin and metabolites; format: in vivo; conditions: single oral gavage dose, Day 1, mini-pigs
Protocol: Single dose study of each arm with full pharmacokinetics (PK) profile through 48 hours post dose was performed to determined when metabolites return to baseline (one week washout between each arm) as well as if acute release of gastrin and cholesystokinin (CCK) hormones cause spasmodic stomach contractions. Blood samples were collected from each arm 0-90 min plus anytime outside this window if gastric distress observed.
More specifically, animals (n=3/sex) were fasted prior to dose and fed 4 hrs post dose. Blood samples for PK analysis of triheptanoin and metabolites were collected pre-dose through 48 hrs post dose.
In FIGS. 1-21, animals were administered a single oral gavage dose level of a triheptanoin oil sample (i.e., the oil) or exemplary solid samples comprising triheptanoin oil in accordance with the present invention. The two exemplary solid compositions comprise 1) 60%:20%:20% of triheptanoin oil:Cab-O-Sil:cellulose acetate (i.e., the Powder-ER); and 2) 80%:20% of triheptanoin oil:Cab-O-Sil (i.e., the Powder), respectively.

[3] = Multiple dose study, metabolite PK profiles Day 1 and Day 7
[4] = test system: mini-pigs; assay: Multiple dose study, vomiting and gastric distress observations

stability [1]: exceed 24 months
levels of ketones (C4-OH, C5-OH) [2]: comparable levels of ketones
Propionylglycine levels ([3]; Day 1 and Day 7, mini-pigs): essentially zero
pimelic acid levels ([3]; Day 1 and Day 7, mini-pigs): highest amount of pimelic acid
conversion of triheptanoin to C7 ([3]; mini-pigs): All triheptanoin oil was converted to C7
triheptanoin levels ([3]; mini-pigs): no triheptanoin values
Structure (SMILES): CCCCCCC(=O)OCC(COC(=O)CCCCCC)OC(=O)CCCCCC [triheptanoin oil, propane-1,2,3-triyl triheptanoate]
vomiting or gastric distress observed [4]: Day 1: Animal #6501 vomited ˜3 hours post dose; also recorded: Day 1: Animal #6516 vomited ˜3 hours post dose; also recorded: Day 5: Animal #6509 gastric distressed observed
